≈ marks a conversion by molar mass, not a printed value.
Legend:
[1] = test system: Phaseolus lunatus; test: Phytotoxicity in Phaseolus lunatus (lima bean) plant assessed as emergence at 2.56 kg ai/ha applied to soil measured up to 14 days under green house conditions (reference value: 70 +/- 16%); assay type: organism-based; details: in vivo, other, 336 h
[2] = test system: Phaseolus lunatus; test: Phytotoxicity in Phaseolus lunatus (lima bean) plant assessed as plant dry weight at 3.12 kg ai/ha applied to soil measured up to 14 days under green house conditions (reference value: 1.20 +/- 0.21 g); assay type: organism-based; details: in vivo, other, 336 h
[3] = test system: Pisum sativum; test: Phytotoxicity in Pisum sativum (pea) assessed as plant height at 3 kg ai/ha applied to soil measured up to 7 days post planting at 19 degC (reference value: 6.2 +/- 0.6 cm); assay type: organism-based; details: lathyrus oleraceus, in vivo, other, 168 h
[4] = test system: Aphis gossypii; test: Insecticidal activity against Aphis gossypii (cotton aphid) infested cotton assessed as mortality applied through foliar spray after 5 days; assay type: functional
[5] = test system: Phaseolus lunatus; test: Phytotoxicity in Phaseolus lunatus (lima bean) root assessed as root dry weight at 1.12 kg ai/ha applied to soil under green house conditions (reference value: 0.36 +/- 0.071 g); assay type: organism-based; details: in vivo, other
[6] = test system: Phaseolus lunatus; test: Phytotoxicity in Phaseolus lunatus (lima bean) root assessed as root dry weight at 3.12 kg ai/ha applied to soil measured up to 14 days under green house conditions (reference value: 0.36 +/- 0.071 g); assay type: organism-based; details: in vivo, other, 336 h
[7] = test system: Meloidogyne incognita; test: Nematicidal activity against second juvenile stage of Meloidogyne incognita (root-knot nematode) infected pea plant assessed as reduction in root gall index at 2 kg ai/ha applied to soil measured up to 7 days post planting under green house conditions (reference value: 9.7 +/- 0.30%); assay type: functional
[8] = test system: Pisum sativum; test: Phytotoxicity in Pisum sativum (pea) assessed as emergence at 2 kg ai/ha applied to soil measured up to 7 days post planting at 19 degC relative to untreated control; assay type: organism-based; details: lathyrus oleraceus, in vivo, other, 168 h
[9] = test system: Meloidogyne incognita; test: Nematicidal activity against second juvenile stage of Meloidogyne incognita (root-knot nematode) infected lima bean plant assessed as shoot dry weight at 3 kg ai/ha applied to soil measured up to 14 days post planting under green house conditions (reference value: 1.84 +/- 0.18 g); assay type: functional
[10] = test system: Solanum lycopersicum; test: Phytotoxicity in Solanum lycopersicum (tomato) assessed as concentration required to cause foliar edge burn applied to soil after 5 weeks; assay type: organism-based; details: in vivo, 840 h
[11] = test system: Phaseolus lunatus; test: Phytotoxicity in Phaseolus lunatus (lima bean) plant assessed as emergence at 1.12 kg ai/ha applied to soil under green house conditions (reference value: 70 +/- 16%); assay type: organism-based; details: in vivo, other
[12] = test system: Gossypium hirsutum; test: Phytotoxicity in Gossypium hirsutum (cotton) assessed as concentration required to cause foliar edge burn applied to soil after 3 weeks; assay type: organism-based; details: in vivo, other, 504 h
[13] = test system: Pisum sativum; test: Phytotoxicity in Pisum sativum (pea) assessed as root dry weight at 3 kg ai/ha applied to soil measured up to 7 days post planting at 27 degC under green house conditions (reference value: 0.33 +/- 0.075 g); assay type: organism-based; details: lathyrus oleraceus, in vivo, other, 168 h
[14] = test system: Meloidogyne incognita; test: Nematicidal activity against second juvenile stage of Meloidogyne incognita (root-knot nematode) infected pea plant assessed as root dry weight at 4 kg ai/ha applied to soil measured up to 7 days post planting under green house conditions (reference value: 0.25 +/- 0.041 g); assay type: functional
[15] = test system: Pisum sativum; test: Phytotoxicity in Pisum sativum (pea) assessed as emergence at 2 kg ai/ha applied to soil measured up to 7 days post planting at 27 degC under green house conditions (reference value: 70 +/- 3.3%); assay type: organism-based; details: lathyrus oleraceus, in vivo, other, 168 h
[16] = test system: Pisum sativum; test: Phytotoxicity in Pisum sativum (pea) assessed as root dry weight at 3 kg ai/ha applied to soil measured up to 14 days post planting at 27 degC under green house conditions (reference value: 0.33 +/- 0.075 g); assay type: organism-based; details: lathyrus oleraceus, in vivo, other, 336 h
[17] = test system: Solanum lycopersicum; test: Phytotoxicity in Solanum lycopersicum (tomato) assessed as foliar edge burn at 200 ug/mL applied through foliar spray after 5 weeks; assay type: organism-based; details: in vivo, other, 840 h
[18] = test system: Meloidogyne incognita; test: Nematicidal activity against second juvenile stage of Meloidogyne incognita (root-knot nematode) assessed as mortality after 48 hr; assay type: functional
[19] = test system: Trichoplusia ni; test: Insecticidal activity against Trichoplusia ni (cabbage looper) infested cabbage assessed as mortality applied through foliar spray after 72 hr; assay type: functional
[20] = test system: Phaseolus lunatus; test: Phytotoxicity in Phaseolus lunatus (lima bean) plant assessed as plant dry weight at 0.56 kg ai/ha applied to soil under green house conditions (reference value: 1.20 +/- 0.21 g); assay type: organism-based; details: in vivo, other
[21] = test system: Gossypium hirsutum; test: Phytotoxicity in Gossypium hirsutum (cotton) assessed as concentration required to cause foliar edge burn applied through foliar spray after 3 weeks; assay type: organism-based; details: in vivo, other, 504 h
[22] = test system: Meloidogyne incognita; test: Nematicidal activity against second juvenile stage of Meloidogyne incognita (root-knot nematode) infected lima bean plant assessed as root dry weight at 1 kg ai/ha applied to soil measured during planting under green house conditions (reference value: 0.5 +/- 0.052 g); assay type: functional
[23] = test system: Meloidogyne incognita; test: Nematicidal activity against second juvenile stage of Meloidogyne incognita (root-knot nematode) infected lima bean plant assessed as shoot dry weight at 3 kg ai/ha applied to soil measured up to 7 days post planting under green house conditions (reference value: 1.84 +/- 0.18 g); assay type: functional
[24] = test system: Phaseolus lunatus; test: Phytotoxicity in Phaseolus lunatus (lima bean) plant assessed as plant dry weight at 2.56 kg ai/ha applied to soil measured up to 14 days under green house conditions (reference value: 1.20 +/- 0.21 g); assay type: organism-based; details: in vivo, other, 336 h
[25] = test system: Meloidogyne incognita; test: Nematicidal activity against second juvenile stage of Meloidogyne incognita (root-knot nematode) infected lima bean plant assessed as reduction in root gall index at 3 kg ai/ha applied to soil measured up to 14 days post planting under green house conditions (reference value: 7 +/- 0.27%); assay type: functional
[26] = test system: Meloidogyne incognita; test: Nematicidal activity against second juvenile stage of Meloidogyne incognita (root-knot nematode) infected pea plant assessed as reduction in root gall index at 3 kg ai/ha applied to soil measured up to 14 days post planting under green house conditions (reference value: 9.7 +/- 0.30%); assay type: functional
[27] = test system: Meloidogyne incognita; test: Nematicidal activity against second juvenile stage of Meloidogyne incognita (root-knot nematode) infected lima bean plant assessed as root dry weight at 3 kg ai/ha applied to soil measured up to 14 days post planting under green house conditions (reference value: 0.5 +/- 0.052 g); assay type: functional
[28] = test system: Meloidogyne incognita; test: Nematicidal activity against second juvenile stage of Meloidogyne incognita (root-knot nematode) infected pea plant assessed as root fresh weight at 2 kg ai/ha applied to soil measured up to 7 days post planting under green house conditions (reference value: 1.83 +/- 0.3 g); assay type: functional
[29] = test system: Pisum sativum; test: Phytotoxicity in Pisum sativum (pea) assessed as root dry weight at 2 kg ai/ha applied to soil measured up to 7 days post planting at 19 degC (reference value: 2 +/- 0.21 g); assay type: organism-based; details: lathyrus oleraceus, in vivo, other, 168 h
[30] = test system: Pisum sativum; test: Phytotoxicity in Pisum sativum (pea) assessed as plant fresh weight at 3 kg ai/ha applied to soil measured up to 7 days post planting at 19 degC (reference value: 9.4 +/- 0.54 g); assay type: organism-based; details: lathyrus oleraceus, in vivo, other, 168 h
[31] = test system: Meloidogyne incognita; test: Nematicidal activity against second juvenile stage of Meloidogyne incognita (root-knot nematode) infected pea plant assessed as root dry weight at 3 kg ai/ha applied to soil measured up to 14 days post planting under green house conditions (reference value: 0.25 +/- 0.041 g); assay type: functional

Work on `CNC(=O)ON=C(C)SC` [METHOMYL] yielded an Activity [1] of 80%, an Activity [2] of 0.87 g and an Activity [3] of 6.9 cm. It also gave an LC90 [4] of 54 µg/mL (≈ 333 µM), an LC50 ([4]; Aphis gossypii, foliar, 120 h) of 25 µg/mL (≈ 154 µM) and an Activity [5] of 0.35 g. For the same compound, the Activity [6] was 0.22 g, the Root_galling_index [7] was 0% and the Activity [8] was 93%. For the same compound, the Activity [9] was 1.55 g, the Activity [10] was 100 µg/mL and the Activity [11] was 80%. It also gave an Activity [12] of 100 µg/mL, an Activity [13] of 0.2 g and an Activity [14] of 0.28 g. For the same compound, the Activity [15] was 50%, the Activity [16] was 0.27 g and the Activity [17] was “Non-toxic”. It also gave an LC90 [18] of 15.2 µg/mL (≈ 93.7 µM), an LC50 ([18]; Meloidogyne incognita, Juvenile stage, 48 h) of 4.9 µg/mL (≈ 30.2 µM) and an LC90 [19] of 533 µg/mL (≈ 3290 µM). For the same compound, the LC50 ([19]; Trichoplusia ni, foliar, 72 h) was 99 µg/mL (≈ 610 µM), the Activity [20] was 1.2 g and the Activity [21] was 100 µg/mL. For the same compound, the Activity [22] was 0.44 g, the Activity [23] was 1.39 g and the Activity [24] was 1.25 g. It also gave a Root_galling_index [25] of 0%, a Root_galling_index [26] of 0% and an Activity [27] of 0.38 g. The Activity [28] was 2.04 g, the Activity [29] was 3.1 g and the Activity [30] was 9.4 g. It also gave an Activity [31] of 0.25 g.

— ChEMBL document CHEMBL3045068, “Effect of methomyl and oxamyl soil applications on early control of nematodes and insects” (Pest Manag Sci, 2011)
